Assay results as given in paper PMC9714295, “DadY (PA5303) is required for fitness of Pseudomonas aeruginosa when growth is dependent on alanine catabolism” (Microbial Cell, 2022).

Tests used:
DadY (PA5303) = target: T1, DadY (PA5303) (Pseudomonas aeruginosa, UniProt Q9HTQ1); assay: semicarbazone competition assay, A248, imine generated by DadA; format: biochemical; settings: imine made in situ from 7.5 mM D-alanine by 0.5 uM DadA; 5 uM DadY; 10 mM semicarbazide, FAD, ubiquinone-1; pH 8.7, 25 C
T1 sequence (Q9HTQ1 1-117): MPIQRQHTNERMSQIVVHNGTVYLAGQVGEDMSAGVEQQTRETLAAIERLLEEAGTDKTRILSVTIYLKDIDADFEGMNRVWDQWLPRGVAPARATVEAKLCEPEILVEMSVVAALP

DadA = target: T2, DadA (Pseudomonas aeruginosa, UniProt Q9HTQ0); assay: semicarbazone formation, A248; format: biochemical; settings: 7.5 mM D-alanine; 10 mM semicarbazide, 30 uM FAD, 100 uM ubiquinone-1; pH 8.7, 25 C; no DadY
T2 construct: gene dadA1
T2 sequence (Q9HTQ0 1-432): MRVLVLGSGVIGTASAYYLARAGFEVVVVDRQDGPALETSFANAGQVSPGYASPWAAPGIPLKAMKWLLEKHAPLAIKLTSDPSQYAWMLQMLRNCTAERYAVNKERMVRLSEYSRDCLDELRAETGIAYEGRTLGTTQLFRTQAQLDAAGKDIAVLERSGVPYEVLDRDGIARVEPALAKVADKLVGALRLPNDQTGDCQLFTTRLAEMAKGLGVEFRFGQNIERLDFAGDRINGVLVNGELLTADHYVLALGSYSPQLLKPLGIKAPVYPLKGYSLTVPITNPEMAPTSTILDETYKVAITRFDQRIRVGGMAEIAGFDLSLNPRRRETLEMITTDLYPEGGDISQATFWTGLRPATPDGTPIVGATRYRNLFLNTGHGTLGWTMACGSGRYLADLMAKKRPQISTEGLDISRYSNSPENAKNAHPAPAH

SMILES	semicarbazone competition assay, A248, imine generated by DadA (DadY (PA5303))	semicarbazone formation, A248 (DadA)
CC(=N)C(=O)O [imino-alanine]	DadY could act on the imine derived from D-alanine that was generated by DadA	–
C[C@@H](N)C(=O)O [D-alanine]	–	When DadA used D-alanine as a substrate and semicarbazide was present, a semicarbazone compound was formed
